In PubChem BioAssay AID248 (DTP/NCI, 2004):
“And” between values parts separate entries of the source, which are not always exact repeats. Equal entries are not always repeated. Toxic doses and inconclusive results are not listed. No stated cut-off is given here; in the data, active means T/C of 150% or more; inactive means T/C below 125%.

Tested on: L1210 leukemia ip in BDF1 mice, survival T/C
Assay: NCI In Vivo Anticancer Drug Screen. Data for tumor model L1210 Leukemia (intraperitoneal) in B6D2F1 (BDF1) mice
Conditions: endpoint: mean survival time, higher = longer survival
Outline: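 Mice bearing the transplanted tumor received compound or vehicle. Survival of the treated group was divided by that of the vehicle-treated control group to give the ratio.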

[1] = dose: 100.0 mg/kg/injection, schedule: Q01DX009 (ip), vehicle: saline with Tween-80
[2] = dose: 200.0 mg/kg/injection, schedule: Q01DX009 (ip), vehicle: saline with Tween-80
[3] = dose: 400.0 mg/kg/injection, schedule: Q01DX009 (ip), vehicle: saline with Tween-80
[4] = dose: 100.0 mg/kg/injection, schedule: Q01DX009 (ip), vehicle: saline
[5] = dose: 100.0 mg/kg/injection, schedule: Q04DX003 (ip), vehicle: saline
[6] = dose: 200.0 mg/kg/injection, schedule: Q01DX009 (ip), vehicle: saline
[7] = dose: 200.0 mg/kg/injection, schedule: Q04DX003 (ip), vehicle: saline
[8] = dose: 400.0 mg/kg/injection, schedule: Q04DX003 (ip), vehicle: saline
[9] = dose: 50.0 mg/kg/injection, schedule: Q01DX009 (ip), vehicle: Klucel (hydroxypropylcellulose) (HPC)
[10] = dose: 100.0 mg/kg/injection, schedule: Q01DX001 (ip), vehicle: Klucel (hydroxypropylcellulose) (HPC)
[11] = dose: 100.0 mg/kg/injection, schedule: Q01DX009 (ip), vehicle: Klucel (hydroxypropylcellulose) (HPC)
[12] = dose: 100.0 mg/kg/injection, schedule: Q04DX002 (ip), vehicle: Klucel (hydroxypropylcellulose) (HPC)
[13] = dose: 200.0 mg/kg/injection, schedule: Q01DX009 (ip), vehicle: Klucel (hydroxypropylcellulose) (HPC)
[14] = dose: 200.0 mg/kg/injection, schedule: Q04DX002 (ip), vehicle: Klucel (hydroxypropylcellulose) (HPC)
[15] = dose: 400.0 mg/kg/injection, schedule: Q01DX009 (ip), vehicle: Klucel (hydroxypropylcellulose) (HPC)
[16] = dose: 400.0 mg/kg/injection, schedule: Q04DX002 (ip), vehicle: Klucel (hydroxypropylcellulose) (HPC)

Measured: T/C

O=C(O)/C=C(/Oc1ccc(Cl)cc1)C(=O)O
inactive: dose: 100.0 mg/kg/injection, schedule: Q04DX002 (ip), vehicle: other 93 % of control | dose: 200.0 mg/kg/injection, schedule: Q04DX002 (ip), vehicle: other 103 % of control | dose: 400.0 mg/kg/injection, schedule: Q04DX002 (ip), vehicle: other 100 % of control

C[n+]1ccc(/C=C/c2c[nH]c3ccccc23)cc1
inactive: dose: 6.25 mg/kg/injection, schedule: Q04DX003 (ip), vehicle: saline with Tween-80 92 % of control | dose: 12.5 mg/kg/injection, schedule: Q04DX003 (ip), vehicle: saline with Tween-80 104 % of control | dose: 25.0 mg/kg/injection, schedule: Q04DX003 (ip), vehicle: saline with Tween-80 97 % of control

CC(Cc1ccccc1)NC1=NCCO1 (stereo not drawn)
inactive: [1] 91 % of control | [2] 91 % of control | [3] 89 % of control

CC(NC1CCCCC1)C(=O)O (stereo not drawn)
inactive: dose: 12.5 mg/kg/injection, schedule: Q04DX002 (ip), vehicle: Klucel (hydroxypropylcellulose) (HPC) 93 % of control | dose: 25.0 mg/kg/injection, schedule: Q04DX002 (ip), vehicle: Klucel (hydroxypropylcellulose) (HPC) 96 % of control | dose: 50.0 mg/kg/injection, schedule: Q04DX002 (ip), vehicle: Klucel (hydroxypropylcellulose) (HPC) 89 % of control

Cc1ccc(OC(=O)Nc2ccc(C(=O)O)c(O)c2)cc1
inactive: [4] 96 % of control | [5] 96 % of control | [6] 89 % of control | [7] 93 % of control | [8] 95 % of control

CNC(=O)C(CCC(=O)OC)NS(=O)(=O)c1ccc(C)cc1 (stereo not drawn)
inactive: dose: 100.0 mg/kg/injection, schedule: Q01DX001 (ip), vehicle: saline with Tween-80 100 % of control | [1] 104 % of control | dose: 200.0 mg/kg/injection, schedule: Q01DX001 (ip), vehicle: saline with Tween-80 100 % of control | [2] 96 % of control | dose: 400.0 mg/kg/injection, schedule: Q01DX001 (ip), vehicle: saline with Tween-80 100 % of control | [3] 104 % of control

CCc1cnc(N)nc1N
inactive: dose: 25.0 mg/kg/injection, schedule: Q01DX009 (ip), vehicle: Klucel (hydroxypropylcellulose) (HPC) 107 % of control | [9] 101 % of control | [10] 107 % of control | [11] 104 % of control

COc1ccc(-c2[nH]c3ccccc3c2-c2ccc(OC)cc2)cc1
inactive: dose: 100.0 mg/kg/injection, schedule: Q01DX001 (ip), vehicle: saline 89 % of control | dose: 200.0 mg/kg/injection, schedule: Q01DX001 (ip), vehicle: saline 89 % of control | dose: 400.0 mg/kg/injection, schedule: Q01DX001 (ip), vehicle: saline 95 % of control

CCC(=O)C(c1ccccc1)(c1ccccc1)C(C)CN(C)C (stereo not drawn)
inactive: dose: 5.0 mg/kg/injection, schedule: Q01DX001 (ip), vehicle: saline 102 % of control | dose: 10.0 mg/kg/injection, schedule: Q01DX001 (ip), vehicle: saline 104 % of control | dose: 20.0 mg/kg/injection, schedule: Q01DX001 (ip), vehicle: saline 96 % of control | dose: 40.0 mg/kg/injection, schedule: Q01DX001 (ip), vehicle: saline 87 % of control

O=C1CN=C(c2ccccn2)c2cc(Br)ccc2N1
inactive: dose: 3.1 mg/kg/injection, schedule: Q03HX024 (ip), vehicle: Klucel (hydroxypropylcellulose) (HPC) 98 % of control | dose: 6.2 mg/kg/injection, schedule: Q03HX024 (ip), vehicle: Klucel (hydroxypropylcellulose) (HPC) 100 % of control | dose: 12.5 mg/kg/injection, schedule: Q03HX024 (ip), vehicle: Klucel (hydroxypropylcellulose) (HPC) 98 % of control | dose: 25.0 mg/kg/injection, schedule: Q03HX024 (ip), vehicle: Klucel (hydroxypropylcellulose) (HPC) 94 % of control | dose: 50.0 mg/kg/injection, schedule: Q03HX024 (ip), vehicle: Klucel (hydroxypropylcellulose) (HPC) 97 % of control | [10] 96 % of control | [11] 94 % of control | [12] 101 % of control and 109 % of control | dose: 100.0 mg/kg/injection, schedule: Q04DX003 (ip), vehicle: Klucel (hydroxypropylcellulose) (HPC) 101 % of control | dose: 119.0 mg/kg/injection, schedule: Q01DX001 (ip), vehicle: Klucel (hydroxypropylcellulose) (HPC) 98 % of control | dose: 178.0 mg/kg/injection, schedule: Q01DX001 (ip), vehicle: Klucel (hydroxypropylcellulose) (HPC) 98 % of control | dose: 200.0 mg/kg/injection, schedule: Q01DX001 (ip), vehicle: Klucel (hydroxypropylcellulose) (HPC) 93 % of control | [13] 106 % of control | [14] 93 % of control and 98 % of control | dose: 200.0 mg/kg/injection, schedule: Q04DX003 (ip), vehicle: Klucel (hydroxypropylcellulose) (HPC) 97 % of control | dose: 266.0 mg/kg/injection, schedule: Q01DX001 (ip), vehicle: Klucel (hydroxypropylcellulose) (HPC) 89 % of control | dose: 400.0 mg/kg/injection, schedule: Q01DX001 (ip), vehicle: Klucel (hydroxypropylcellulose) (HPC) 96 % of control | [15] 96 % of control | [16] 92 % of control | dose: 400.0 mg/kg/injection, schedule: Q04DX003 (ip), vehicle: Klucel (hydroxypropylcellulose) (HPC) 101 % of control | dose: 600.0 mg/kg/injection, schedule: Q01DX001 (ip), vehicle: Klucel (hydroxypropylcellulose) (HPC) 106 % of control

CCCCN1C(=O)C2CCC34C5C(=O)N(CCCC)C(=O)C5C5C=CC3(C2C1=O)C1C(=O)N(CCCC)C(=O)C1N54 (stereo not drawn)
inactive: [9] 99 % of control | [11] 99 % of control | [13] 97 % of control | [15] 97 % of control

COc1ccc(NC(=O)Nc2ccc(NC(C)=O)cc2)cc1
inactive: [1] 86 % of control | [2] 92 % of control

COc1cc2c(cc1O)C(CCc1cc(OC)c(OC)c(OC)c1)=NCC2
inactive: dose: 50.0 mg/kg/injection, schedule: Q04DX002 (ip), vehicle: saline 101 % of control | dose: 100.0 mg/kg/injection, schedule: Q04DX002 (ip), vehicle: saline 104 % of control | dose: 200.0 mg/kg/injection, schedule: Q04DX002 (ip), vehicle: saline 104 % of control

CC(C)(C)c1ccc(Oc2ccc([N+](=O)[O-])cc2[N+](=O)[O-])c(Br)c1
inactive: [11] 96 % of control | [12] 104 % of control | [13] 96 % of control | [14] 108 % of control | [15] 96 % of control | [16] 111 % of control

CCN(CC)CCN(C)C
inactive: [4] 102 % of control | [5] 105 % of control | [6] 107 % of control | [7] 97 % of control | [8] 97 % of control

O=C1C2=C(C(=O)c3ccccc31)C1C=CC2CC1
inactive: dose: 50.0 mg/kg/injection, schedule: Q01DX001 (ip), vehicle: carboxymethylcellulose (CMC) 111 % of control | dose: 100.0 mg/kg/injection, schedule: Q01DX001 (ip), vehicle: carboxymethylcellulose (CMC) 101 % of control

O=C(CCCl)NC1CC1c1ccccc1 (stereo not drawn)
inactive: [1] 90 % of control | dose: 100.0 mg/kg/injection, schedule: Q04DX003 (ip), vehicle: saline with Tween-80 97 % of control | [2] 95 % of control | dose: 200.0 mg/kg/injection, schedule: Q04DX003 (ip), vehicle: saline with Tween-80 97 % of control | [3] 94 % of control | dose: 400.0 mg/kg/injection, schedule: Q04DX003 (ip), vehicle: saline with Tween-80 95 % of control
